Experimental data: US7238469B2, “Carbon monoxide improves outcomes in tissue and organ transplants and suppresses apoptosis” (priority 2001, dated 2007)

Key:
βTC3 cells = assay: TNF-α mediated apoptosis of β-gal transfected βTC3 cells (percentage of viable cells); format: cell-based, murine
Experimental: The murine insulinoma cell line βTC3 (DSMZ, Braunschweig, Germany) was cultured in Dulbecco's Modified Eagle's Medium (DMEM) (Life Technologies, Grand Island, N.Y., USA) supplemented with 2 mM L-glutamine, 100 U/ml penicillin G, 100 U/ml streptomycin and 10% Fetal Calf Serum (FCS) (Life Technologies) and incubated in humidified 5% CO2/95% air at 37° C. This murine β-cell line, derived from transgenic mice carrying a hybrid insulin-promoter simian virus 40 tumor antigen, is known to maintain the features of differentiated β-cells for about 50 passages in culture. […] Compared to other frequently used transformed β-cell lines such as RIN-m5F and HIT, levels of secreted insulin are closer to normal β-cells in the βTC3 cell line. Thus, these cells are useful for studying β-cell regulation and gene expression (D'Ambra et al., Endocrinology 726:2815–22, 1990).
βTC3 were seeded at 3×10^5 cells in 16 mm wells and transfected 15 to 20 hours later using Lipofectamine plus™ reagents (Life Technologies) according to the manufacturer's instructions. Total DNA was maintained constant using empty pcDNA3 vector. The percentage of viable cells was assessed by normalizing the percentage of viable cells of each DNA preparation to the number of control-transfected cells without the apoptotic stimulus (100% viability) (Soares et al., Nature Med. 4:1073–1077, 1998; Sato et al., J. Immunol. 166:4185–4194, 2001).
Murine recombinant TNF-α (R&D Systems) was dissolved in PBS with 1% bovine serum albumin and added to the culture medium (17.5 ng/ml=500 U) 24 hours after transfection. The caspase-3 inhibitor Z-DEVD-FMK and the caspase-8 inhibitor IETD-CHO (Calbiochem, San Diego, Calif.) were dissolved in dimethyl sulphoxide (DMSO, Sigma) and added to the culture medium (10 μM and 1 μM respectively) two hours before treatment with TNF-α. Tin protoporphyrin (SnPPIX) (Porphyrin Products, Logan, Utah) was dissolved (10 mM) in 100 mM NaOH and added 6 hours after transfection to the culture medium (50 μM). The guanylyl cyclase inhibitor 1H[1,2,4]oxadiazolo[4,3-α]quinoxalin-1 (ODQ; Calbiochem) was dissolved in DMSO and added to the culture medium (100 μM) 6 hours after transfection. The cGMP analogue 8-bromoguanosine-3′-5′-cyclic-monophosphate (8-Br-cGMP) (Sigma) was dissolved in water and added to the culture medium (10 μM) 30 minutes before induction of apoptosis. The protein kinase G inhibitor KT5823 (Calbiochem) was dissolved in DMSO and added to the culture medium (1.6 μM) 6 hours after transfection.
Cells and islets were exposed to 1% carbon monoxide in compressed air balanced with 5% CO2, as described elsewhere (see, e.g., Otterbein et al., Nature Med. 6:422–428, 2000). Islets were incubated in RPMI medium pre-saturated with carbon monoxide (4° C. overnight, 1% CO, 5% CO2) for two hours at 37° C. while treatment with 1% CO, 5% CO2 was continued.

[1] = test system: mouse hearts transplanted into rats; assay: Mouse-to-rat heterotopic cardiac transplant, graft survival; format: in vivo, BALB/c mouse hearts, Lewis rats; details: for graft outcome: mouse hearts into rats, FePPIX with CVF plus CsA, CO 400 ppm in SnPPIX-treated rats
Description: BALB/c mouse hearts were used as donor organs for transplantation into inbred adult male Lewis rats (Harlan Sprague-Dawley, Indianapolis, Ind.). Animals were housed in accordance with guidelines from the American Association for Laboratory Animal Care, and research protocols were approved by the Institutional Animal Care and Use Committees of the Beth Israel Deaconess Medical Center.
Animals were anesthetized by a combination of methoxyflurane (Pitman-Moore, Mundelain, Ill.) inhalation and pentobarbital (Abbott, North Chicago, Ill.) at a dose of 30–50 mg/kg i.p. during all procedures. Heterotopic cardiac transplants were performed as described previously (Berk et al., Physiol Rev. 8:999–1030, 2001; Petkova et al., J Biol. Chem. 276:7932–7936, 2001). Graft survival was assessed daily by palpation. Rejection was diagnosed by cessation of ventricular contractions and confirmed by histologic examination.
Cobra venom factor (CVF; which blocks complement activation) (Quidel, San Diego, Calif.) was administered i.p. on day −1 (60 U/kg) and on day 0 (20 U/kg) with respect to the day of transplantation (day 0). Cyclosporin A (CsA; Novartis, Basel, Switzerland), which blocks T cell activation, was administered i.m. (15 mg/kg) starting at day 0 and daily thereafter until the end of each experiment. Tin protoporphyrin (SnPPIX), cobalt protoporphyrin (CoP-PIX), and iron protoporphyrin (FePPIX; Porphyrin Products, Logan, Utah) were diluted in 100 mM NaOH to a stock solution of 50 mM and kept at −70° C. until used. Light exposure was limited as much as possible. Both SnPPIX and FePPIX were administered i.p. (30 μM/kg) in PBS. FePPIX and SnPPIX were administered to the donor at days −2 and −1 (30 μM/kg) and to the recipient at the time of transplantation (day 0) and daily thereafter (30 μM/kg).
Briefly, CO at a concentration of 1% (10,000 parts per million; ppm) in compressed air was mixed with balanced air (21% oxygen) in a stainless steel mixing cylinder before entering the exposure chamber. CO concentrations were controlled by varying the flow rates of CO in a mixing cylinder before delivery to the chamber. Because the flow rate is primarily determined by the O2 flow, only the CO flow was changed to deliver the final concentration to the exposure chamber. A CO analyzer (Interscan Corporation, Chatsworth, Calif.) was used to measure CO levels continuously in the chamber. Graft donors were placed in the CO exposure chamber 2 days before transplantation. Graft recipients were placed in the exposure chamber immediately following transplantation and were kept in the exposure chamber for 14 (n=3) or 16 (n=3) days. CO concentration was maintained between 250 and 400 ppm at all times. Animals were removed daily from the chamber to assess graft survival and to administer CsA, SnPPIX, or FePPIX, as described above.

## Nc1nc2c(nc(Br)n2[C@@H]2O[C@@H]3COP(=O)(O)O[C@H]3[C@H]2O)c(=O)[nH]1 [8-Br-cGMP, 8-bromoguanosine-3′-5′-cyclic-monophosphate]
βTC3 cells; TNF-α, 8-Br-cGMP 10 μM, no CO
  effect on βTC3 apoptosis: suppressed βTC3 apoptosis to an extent similar to that seen with carbon monoxide

## [C-]#[O+] [CO, carbon monoxide]
[1]; 400–500 ppm
  dose of CO used as fraction of the lethal dose: approximately one-twentieth
[1]
  graft outcome: survived long term
[1]; rats and mice exposed to CO
  untoward reactions: did not exhibit untoward reactions
[1]; rats treated with SnPPIX, CO 400 ppm discontinued 14 or 16 days after transplantation
  time grafts continued to function: > 50 days
βTC3 cells; 1% CO
  effect on β-cell apoptosis induced by etoposide or serum starvation: suppressed
βTC3 cells; 1% CO for one hour, tested 24 hours later
  effect on β-cell apoptosis, CO exposure immediately after TNF-α: sufficient to prevent β-cell apoptosis
βTC3 cells; 1% CO for one hour, two hours after TNF-α stimulation
  effect on β-cell apoptosis, CO exposure after induction of apoptosis: still able to suppress β-cell apoptosis
βTC3 cells; 1% CO, action of HO-1 suppressed by SnPPIX
  effect on TNF-α mediated apoptosis: suppressed TNF-α mediated apoptosis to a similar extent as HO-1
βTC3 cells; one hour pre-incubation, TNF-α two to three hours after end of CO treatment
  effect on β-cell apoptosis, pre-incubation with CO: prevented β-cell apoptosis

## C=CC1=C(C)c2cc3[n-]c(cc4[n-]c(cc5nc(cc1n2)C(C)=C5C=C)c(C)c4CCC(=O)O)c(CCC(=O)O)c3C.[Fe+2] [FePPIX, iron protoporphyrin]
[1]
  graft outcome: did not lead to graft rejection

## O=c1onc2cnc3ccccc3n12 [ODQ, 1H[1,2,4]oxadiazolo[4,3-α]quinoxalin-1]
βTC3 cells; TNF-α, 1% CO, ODQ 100 μM, KT5823 1.6 μM
  effect on the anti-apoptotic effect of exogenous CO: suppressed the anti-apoptotic effect of CO

## C=Cc1c2[n-]c(c1C)/C=c1\[n-]/c(c(C)c1C=C)=C\c1[n-]c(c(CCC(=O)O)c1C)C=c1[n-]/c(c(C)c1CCC(=O)O)=C\2.[Sn+4] [SnPPIX, tin protoporphyrin IX]
[1]; SnPPIX to donor and recipient, despite CVF plus CsA
  time to graft rejection after transplantation: 3 to 7 days
βTC3 cells; TNF-α, SnPPIX 50 μM
  anti-apoptotic effect of HO-1 over-expression when HO-1 activity was blocked: the anti-apoptotic effect was suppressed
